Experimental data: patent US20240174662A1, “SMALL MOLECULE INHIBITORS OF SALT INDUCIBLE KINASES” (Janssen Biotech, Inc., priority 2021, published 2024)

target: T1, SIK2 (Homo sapiens (Human), UniProt Q9H0K1); experiment: SIK2 Enzymatic Assay Version 1 (ADP Glo); format: biochemical; conditions: 80 μM ATP and 70 μM HDAC5tide final, ADPGlo luminescence
Description: All steps were performed at room temperature. Compounds were pre-plated onto an assay plate using an Echo acoustic dispenser (Labcyte, E550 or E555) at 20 nL per well. Enzyme prepared in Assay Buffer at 0.6 nM (2× final concentration) was added at 2 μL per well using the Multidrop Combi (Thermo Fisher-used for all additions in this assay) to the assay plate, spun for 1 min at 800-850 rpm (Allegra 6KR Beckman Coulter centrifuge), and incubated with compound for 30 minutes. Assay Buffer containing 160 μM ATP and 140 μM HDAC5tide (2× of final concentration for each substrate) was added at 2 μL per well to the assay plate and then spun as above and incubated for 4 hours.
One column of wells was dedicated to a no-peptide negative control (containing only ATP). ADPGlo Reagent (prepared and aliquoted as per manufacturer instructions) was then added at 2 μL per well, spun and incubated for 40 min. ADPGlo Detection (prepared and aliquoted as per manufacturer instructions) was added at 2 μL per well to the assay plate, which was spun and incubated for at least 30 min. The plate was then read on the Pherastar (BMG Labtech) using a luminescence read. Gain was set by the 0.1 mM concentration of ADP wells in the ADP/ATP standard curve plate generated as per manufacturer instructions.

T1 sequence (Q9H0K1 whole entry, species assumed): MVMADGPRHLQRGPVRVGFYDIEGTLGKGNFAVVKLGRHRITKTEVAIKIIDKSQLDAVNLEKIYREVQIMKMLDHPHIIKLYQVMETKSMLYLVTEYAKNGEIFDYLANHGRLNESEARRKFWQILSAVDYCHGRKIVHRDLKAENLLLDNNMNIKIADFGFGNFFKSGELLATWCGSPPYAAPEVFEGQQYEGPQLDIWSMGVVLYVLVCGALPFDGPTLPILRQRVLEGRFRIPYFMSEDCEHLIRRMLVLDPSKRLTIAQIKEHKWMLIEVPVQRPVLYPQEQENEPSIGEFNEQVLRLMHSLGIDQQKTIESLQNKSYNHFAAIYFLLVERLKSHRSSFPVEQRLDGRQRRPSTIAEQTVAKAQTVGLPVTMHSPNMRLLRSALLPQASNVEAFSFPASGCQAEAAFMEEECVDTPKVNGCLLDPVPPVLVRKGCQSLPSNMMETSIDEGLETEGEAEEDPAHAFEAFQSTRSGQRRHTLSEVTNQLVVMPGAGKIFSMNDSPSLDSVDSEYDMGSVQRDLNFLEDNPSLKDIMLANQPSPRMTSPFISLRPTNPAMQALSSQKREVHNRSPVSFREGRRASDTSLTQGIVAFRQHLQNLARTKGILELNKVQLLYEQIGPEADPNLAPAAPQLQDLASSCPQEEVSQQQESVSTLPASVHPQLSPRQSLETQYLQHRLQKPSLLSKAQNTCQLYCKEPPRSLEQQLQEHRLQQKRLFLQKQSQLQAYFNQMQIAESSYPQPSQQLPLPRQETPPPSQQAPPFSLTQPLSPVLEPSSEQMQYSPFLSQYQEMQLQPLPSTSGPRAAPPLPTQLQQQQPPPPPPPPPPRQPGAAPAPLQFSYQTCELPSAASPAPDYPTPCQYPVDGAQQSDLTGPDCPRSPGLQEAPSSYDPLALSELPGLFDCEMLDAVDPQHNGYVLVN

IC50 [nM] | SMILES
39.7 | Cc1oncc1-c1ccn2nc(NC(=O)C3CC3)cc2c1 [Example 486, N-[5-(5-methylisoxazol-4-yl)pyrazolo[1,5-a]pyridin-2-yl]cyclopropanecarboxamide]
12.9 | CN1CCO[C@H](COc2cnn(C)c2-c2ccn3nc(NC(=O)C4CC4)cc3c2)C1 [Example 487]
6.45 | CN1CC[C@@H](Oc2cnn(C)c2-c2ccn3nc(NC(=O)C4CC4)cc3c2)C1 [Example 488, N-[5-[2-methyl-4-[(3R)-1-methylpyrrolidin-3-yl]oxy-pyrazol-3-yl]pyrazolo[1,5-a]pyridin-2-yl]cyclopropanecarboxamide]

target: T1, SIK2; experiment: SIK2 Enzymatic Assay Version 2 (High ATP); format: biochemical; conditions: 3 mM ATP and 200 μM HDAC5tide final, ADP-Glo Max luminescence
Method in brief: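 Luminescent ADP-Glo Max read-out: depletion reagent 2 h, then detection reagent 1 h. Before the reaction, compounds were incubated 30 min with enzyme added at 6 nM (twice final concentration), with all steps at room temperature.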

IC50 [nM] | SMILES
334 | CN1CCO[C@H](COc2cnn(C)c2-c2ccn3nc(NC(=O)C4CC4)cc3c2)C1 [Example 487]
424 | CN1CC[C@@H](Oc2cnn(C)c2-c2ccn3nc(NC(=O)C4CC4)cc3c2)C1 [Example 488, N-[5-[2-methyl-4-[(3R)-1-methylpyrrolidin-3-yl]oxy-pyrazol-3-yl]pyrazolo[1,5-a]pyridin-2-yl]cyclopropanecarboxamide]
995 | Cc1onc(OC[C@H]2COCCN2)c1-c1ccn2nc(NC(=O)C3CC3)cc2c1 [Example 496, N-[5-[5-methyl-3-[[(3R)-morpholin-3-yl]methoxy]isoxazol-4-yl]pyrazolo[1,5-a]pyridin-2-yl]cyclopropanecarboxamide]
2530 | Cc1onc(OC[C@@H]2COCCN2)c1-c1ccn2nc(NC(=O)C3CC3)cc2c1 [Example 497]
232 | Cc1onc(OC[C@@H]2CCN2C)c1-c1ccn2nc(NC(=O)C3CC3)cc2c1 [Example 498]
720 | CN1C[C@@H](F)[C@@H](Oc2cnn(C)c2-c2ccn3nc(NC(=O)C4CC4)cc3c2)C1 [Example 499]
431 | Cc1onc(OC[C@@H]2CCCN2C)c1-c1ccn2nc(NC(=O)C3CC3)cc2c1 [Example 500, N-[5-[5-methyl-3-[[(2S)-1-methylpyrrolidin-2-yl]methoxy]isoxazol-4-yl]pyrazolo[1,5-a]pyridin-2-yl]cyclopropanecarboxamide]
355 | Cc1onc(OC[C@@H]2CCCCN2C)c1-c1ccn2nc(NC(=O)C3CC3)cc2c1 [Example 501, N-[5-[5-methyl-3-[[(2S)-1-methyl-2-piperidyl]methoxy]isoxazol-4-yl]pyrazolo[1,5-a]pyridin-2-yl]cyclopropanecarboxamide]
1580 | Cc1onc(OC[C@H]2CCCCN2C)c1-c1ccn2nc(NC(=O)C3CC3)cc2c1 [Example 502, N-[5-[5-methyl-3-[[(2R)-1-methyl-2-piperidyl]methoxy]isoxazol-4-yl]pyrazolo[1,5-a]pyridin-2-yl]cyclopropanecarboxamide]
442 | CN1CC[C@@H]1COc1cnn(C)c1-c1ccn2nc(N)cc2c1 [Example 503, 5-[2-methyl-4-[[(2R)-1-methylazetidin-2-yl]methoxy]pyrazol-3-yl]pyrazolo[1,5-a]pyridin-2-amine]
466 | Cn1ncc(O[C@H]2CNC[C@H]2F)c1-c1ccn2nc(NC(=O)C3CC3)cc2c1 [Example 504, N-[5-[4-[(3S,4R)-4-fluoropyrrolidin-3-yl]oxy-2-methyl-pyrazol-3-yl]pyrazolo[1,5-a]pyridin-2-yl]cyclopropanecarboxamide]
1380 | CN1CCCC[C@H]1COc1cnn(C)c1-c1ccn2nc(NC(=O)C3CC3)cc2c1 [Example 505]
350 | Cn1ncc(OCC2(N)CC2)c1-c1ccn2nc(NC(=O)C3CC3)cc2c1 [Example 506, N-[5-[4-[(1-aminocyclopropyl)methoxy]-2-methyl-pyrazol-3-yl]pyrazolo[1,5-a]pyridin-2-yl]cyclopropanecarboxamide]
1700 | CN1CCCC[C@@H]1COc1cnn(C)c1-c1ccn2nc(NC(=O)C3CC3)cc2c1 [Example 507, N-[5-[2-methyl-4-[[(2R)-1-methyl-2-piperidyl]methoxy]pyrazol-3-yl]pyrazolo[1,5-a]pyridin-2-yl]cyclopropanecarboxamide]
